Assay results: ChEMBL document CHEMBL1833962, “Benzotriazinone and benzopyrimidinone derivatives as potent positive allosteric AMPA receptor modulators” (2011)
The source made the active and inactive calls. The calls are words filed in the database; no cut-off is given here.

Columns and labels:
Rattus norvegicus [1] = species on record: Rattus norvegicus; assay: Positive allosteric modulation of AMPA receptor in Sprague-Dawley rat hippocampal neuron assessed as glutamate-induced response pre-treated for 20 secs by patch-clamp electrophysiology; assay type: tissue-based; conditions: Hippocampus
Rattus norvegicus [2] = assay: Positive allosteric modulation of AMPA receptor in anesthetized Long-Evans rat assessed as amplitude increase by measuring evoked hilar excitatory post-synaptic field potentials at 5 mg/kg, ip for every 20 secs up to 80 to 100 mins by electrophysiology assay; assay type: functional
Rattus norvegicus [3] = assay: Positive allosteric modulation of AMPA receptor in anesthetized Long-Evans rat assessed as amplitude increase by measuring evoked hilar excitatory post-synaptic field potentials at 3 mg/kg, ip for every 20 secs up to 80 to 100 mins by electrophysiology assay; assay type: functional; conditions: route intraperitoneal
Rattus norvegicus [4] = assay: Positive allosteric modulation of AMPA receptor in anesthetized Long-Evans rat assessed as amplitude increase by measuring evoked hilar excitatory post-synaptic field potentials at 1 mg/kg, iv for every 20 secs up to 80 to 100 mins by electrophysiology assay; assay type: functional
Rattus norvegicus [5] = assay: Positive allosteric modulation of AMPA receptor in anesthetized Long-Evans rat assessed as amplitude increase by measuring evoked hilar excitatory post-synaptic field potentials at 0.5 mg/kg, iv for every 20 secs up to 80 to 100 mins by electrophysiology assay; assay type: functional
Rattus norvegicus [6] = assay: Positive allosteric modulation of AMPA receptor in anesthetized Long-Evans rat assessed as amplitude increase by measuring evoked hilar excitatory post-synaptic field potentials at 1 mg/kg, ip for every 20 secs up to 80 to 100 mins by electrophysiology assay; assay type: functional; conditions: route intraperitoneal
Rattus norvegicus [7] = assay: Positive allosteric modulation of AMPA receptor in anesthetized Long-Evans rat assessed as amplitude increase by measuring evoked hilar excitatory post-synaptic field potentials at 2 mg/kg, ip for every 20 secs up to 80 to 100 mins; assay type: functional; conditions: route intraperitoneal
Rattus norvegicus [8] = assay: Positive allosteric modulation of AMPA receptor in anesthetized Long-Evans rat assessed as amplitude increase by measuring evoked hilar excitatory post-synaptic field potentials at 10 mg/kg, ip for every 20 secs up to 80 to 100 mins by electrophysiology assay; assay type: functional; conditions: route intraperitoneal
Rattus norvegicus [9] = assay: Memory enhancing effect in Long-Evans rat assessed as increase in tetanic stimulation of hippocampal long term potentiation at 1 mg/kg, ip; assay type: functional, organism-based; parameters: dose 1 mg/kg; conditions: Hippocampus

CD (Rattus norvegicus [1]) | SMILES | Activity (Rattus norvegicus [2]; route intraperitoneal) [%] | other results
0.14 µM | C#CCn1nnc2cc3c(cc2c1=O)OC1CCCN1C3=O (stereo unspecified) |  | Activity (Rattus norvegicus [2]): inactive
0.019 µM | O=C1c2cc3ncn(CCn4cc(Cl)cn4)c(=O)c3cc2OC2CCCN12 (stereo unspecified) |  | Activity (Rattus norvegicus [3]): 3%
0.13 µM | C#CCn1cnc2cc3c(cc2c1=O)OC1CCCN1C3=O (stereo unspecified) |  | Activity (Rattus norvegicus [2]): inactive
0.011 µM | O=C1c2cc3c(cc2OCN1CCc1cccc(F)c1)C(=O)N1CCCC1O3 (stereo unspecified) | 2 | Activity (Rattus norvegicus [4]): 28%
0.0037 µM | O=C1c2cc3ncn(CCc4cccc(F)c4)c(=O)c3cc2OC2CCCN12 (stereo unspecified) |  | Activity (Rattus norvegicus [3]): 27%; Activity (Rattus norvegicus [5]): 21%
0.17 µM | O=C1c2cc3ncn(CCn4cccn4)c(=O)c3cc2OC2CCCN12 (stereo unspecified) |  | Activity (Rattus norvegicus [2]): inactive
48 µM | COC(=O)[C@@H](Cc1ccccc1)N1COc2cc3c(cc2C1=O)OC1CCCN1C3=O (stereo partly specified) |  | 
0.32 µM | C#C[C@H](Cc1ccccc1)N1COc2cc3c(cc2C1=O)OC1CCCN1C3=O (stereo partly specified) |  | 
inactive | C[C@@H](Cn1cc(Cl)cn1)n1cnc2cc3c(cc2c1=O)OC1CCCN1C3=O (stereo partly specified) |  | 
0.004 µM | C#C[C@H](Cc1cccc(F)c1)N1COc2cc3c(cc2C1=O)OC1CCCN1C3=O (stereo partly specified) |  | 
7.4 µM | COC(CN1COc2cc3c(cc2C1=O)OC1CCCN1C3=O)c1ccccc1 (racemic) |  | 
0.13 µM | O=C1c2cc3ncn(CCc4ccccc4)c(=O)c3cc2OC2CCCN12 (stereo unspecified) | 2 | 
0.002 µM | C#C[C@H](Cc1cc(F)cc(F)c1)n1cnc2cc3c(cc2c1=O)OC1CCCN1C3=O (stereo partly specified) |  | Activity (Rattus norvegicus [6]): 30%
0.28 µM | COC(=O)[C@H](Cc1ccccc1)N1COc2cc3c(cc2C1=O)OC1CCCN1C3=O (stereo partly specified) |  | 
1.5 µM | O=C1c2cc3c(cc2OCN1CC(F)(F)c1cccc(F)c1)C(=O)N1CCCC1O3 (stereo unspecified) |  | 
0.1 µM | O=C1c2cc3nnn(CCn4cccn4)c(=O)c3cc2OC2CCCN12 (stereo unspecified) |  | Activity (Rattus norvegicus [2]): inactive
6.7 µM | O=C1c2cc3ncn(C4CC4)c(=O)c3cc2OC2CCCN12 (stereo unspecified) |  | 
0.004 µM | C#C[C@H](Cc1cccc(F)c1)n1nnc2cc3c(cc2c1=O)OC1CCCN1C3=O (stereo partly specified) |  | Activity (Rattus norvegicus [7]): 5%
0.2 µM | C#C[C@H](Cc1cccc(F)c1)n1nnc2cc3c(cc2c1=O)OCN(C1CC1)C3=O | 10 | 

CD (Rattus norvegicus [1]) | SMILES | Activity (Rattus norvegicus [2]; route intraperitoneal) [%] | other results
0.25 µM | O=C1c2cc3c(cc2OCN1CCc1ccccc1)C(=O)N1CCCC1O3 (stereo unspecified) |  | 
0.4 µM | O=C1c2cc3nnn(C4CC4)c(=O)c3cc2OC2CCCN12 (stereo unspecified) |  | Activity (Rattus norvegicus [8]): 3%
0.45 µM | C[C@H](Cn1nccn1)n1cnc2cc3c(cc2c1=O)OC1CCCN1C3=O (stereo partly specified) | 7 | 
0.19 µM | C[C@H](Cn1cnnn1)n1nnc2cc3c(cc2c1=O)OCN(C1CC1)C3=O | 7 | 
0.46 µM | C[C@H](Cn1ncnn1)n1nnc2cc3c(cc2c1=O)OCN(C1CC1)C3=O | 33 | Activity (Rattus norvegicus [9]): Active
0.0031 µM | O=C1c2cc3nnn(CCc4cccc(F)c4)c(=O)c3cc2OC2CCCN12 (stereo unspecified) | 24 | Activity (Rattus norvegicus [4]): 24%
0.03 µM | C[C@H](Cn1ncnn1)n1cnc2cc3c(cc2c1=O)OC1CCCN1C3=O (stereo partly specified) | 22 | 
0.021 µM | CC[C@H](Cc1cccc(F)c1)n1nnc2cc3c(cc2c1=O)OC1CCCN1C3=O (stereo partly specified) | 2 | 
1 µM | O=C1c2cc3c(cc2OCN1CC(O)c1ccccc1)C(=O)N1CCCC1O3 (racemic) |  | 
17 µM | CC(C)(CN1COc2cc3c(cc2C1=O)OC1CCCN1C3=O)c1cccc(F)c1 (stereo unspecified) |  | 
0.0029 µM | C#C[C@H](Cc1cc(F)cc(F)c1)n1nnc2cc3c(cc2c1=O)OC1CCCN1C3=O (stereo partly specified) | 34 | 
0.68 µM | Cn1nnc2cc3c(cc2c1=O)OC1CCCN1C3=O (stereo unspecified) |  | Activity (Rattus norvegicus [2]): inactive
0.015 µM | C[C@H](Cn1cnnn1)n1nnc2cc3c(cc2c1=O)OC1CCCN1C3=O (stereo partly specified) | 10 | 
0.0084 µM | CC[C@H](Cn1cc(Cl)cn1)n1cnc2cc3c(cc2c1=O)OC1CCCN1C3=O (stereo partly specified) |  | Activity (Rattus norvegicus [3]): 4%
100 µM | O=C(CN1COc2cc3c(cc2C1=O)OC1CCCN1C3=O)c1ccccc1 (stereo unspecified) |  | 
0.0069 µM | C[C@H](Cn1cc(Cl)cn1)n1cnc2cc3c(cc2c1=O)OC1CCCN1C3=O (stereo partly specified) |  | Activity (Rattus norvegicus [6]): 2%
0.006 µM | C#C[C@H](Cc1cccc(F)c1)n1cnc2cc3c(cc2c1=O)OC1CCCN1C3=O (stereo partly specified) |  | Activity (Rattus norvegicus [7]): 12%
0.042 µM | C[C@H](Cn1ncnn1)n1nnc2cc3c(cc2c1=O)OC1CCCN1C3=O (stereo partly specified) | 39 | 
